From patent US11787830B2, “Crystalline solids of nicotinic acid mononucleotide and esters thereof and methods of making and use” (Metro International Biotech, LLC, priority 2021, dated 2023)
Values after ≈ are worked out from the molar mass of the structure shown.

Assay: physchem
Procedure: An additional 2 mL of water was added to give a clear solution. […] This was allowed to stir for two days at ambient temperature. The solids were filtered and washed with 15 mL of (2:1 v:v) 1-propanol:water, 15 mL of 1-propanol, then 2×15 mL of methyl tert-butyl ether.

water solubility as ratio water:Compound 2: 50:1 w:w
solubility (water): ~20 mg/mL (≈ 59.7 mM)
SMILES: O=C([O-])c1ccc[n+]([C@@H]2O[C@H](COP(=O)(O)O)[C@@H](O)[C@H]2O)c1 [Compound 2, Nicotinic acid mononucleotide]
